In publication PMC5218480 (PLoS ONE, 2017):

Tested on: MV-4-11 cells
Assay: Gene expression microarray analysis (Affymetrix PrimeView) and GSEA
Format: cell-based, human
Design: RFU PODN (11730768_x_at) / Fold change /veh PODN (11730768_x_at) / RFU LINC00158 (11744669_a_at) / Fold change /veh LINC00158 (11744669_a_at) / RFU DUSP10 (11751237_a_at) / Fold change /veh DUSP10 (11751237_a_at) / RFU ID3 (11757404_x_at) / Fold change /veh ID3 (11757404_x_at) / RFU PLEKHG5 (11737974_s_at) / Fold change /veh PLEKHG5 (11737974_s_at) / RFU LRRC4B (11730491_at) / Fold change /veh LRRC4B (11730491_at) / RFU GIMAP4 (11747438_a_at) / Fold change /veh GIMAP4 (11747438_a_at) / RFU KRT8 (11758183_x_at) / Fold change /veh KRT8 (11758183_x_at) / RFU CNN1 (11734310_a_at) / Fold change /veh CNN1 (11734310_a_at) / RFU VPS37D (11726825_at) / Fold change /veh VPS37D (11726825_at) / RFU C10orf10 (11716522_x_at) / Fold change /veh C10orf10 (11716522_x_at) / RFU KIR2DL2 /// KIR2DL4 /// KIR2DL5A /// KIR2DL5B /// KIR2DS1 /// KIR2DS2 /// KIR2DS3 /// KIR2DS4 /// KIR3DL3 /// KIR3DL3 /// KIR3DS1 (11738374_at) / Fold change /veh KIR2DL2 /// KIR2DL4 /// KIR2DL5A /// KIR2DL5B /// KIR2DS1 /// KIR2DS2 /// KIR2DS3 /// KIR2DS4 /// KIR3DL3 /// KIR3DL3 /// KIR3DS1 (11738374_at) / RFU C1QL1 (11718748_at) / Fold change /veh C1QL1 (11718748_at) / RFU TMPRSS4 (11747572_a_at) / Fold change /veh TMPRSS4 (11747572_a_at) / RFU HAMP (11756126_x_at) / Fold change /veh HAMP (11756126_x_at) / RFU RNFT2 (11725882_a_at) / Fold change /veh RNFT2 (11725882_a_at) / RFU NR4A2 (11747474_a_at) / Fold change /veh NR4A2 (11747474_a_at) / RFU ABCC12 (11746883_a_at) / Fold change /veh ABCC12 (11746883_a_at) / RFU TMEM136 (11760407_x_at) / Fold change /veh TMEM136 (11760407_x_at) / RFU CLDN22 /// WWC2 (11732394_at) / Fold change /veh CLDN22 /// WWC2 (11732394_at) / RFU HLA-DPB1 (11760878_x_at) / Fold change /veh HLA-DPB1 (11760878_x_at) / RFU SPINT1 (11716480_a_at) / Fold change /veh SPINT1 (11716480_a_at) / RFU GAP43 (11754022_s_at) / Fold change /veh GAP43 (11754022_s_at) / RFU A4GNT (11735810_at) / Fold change /veh A4GNT (11735810_at) / RFU PRB3 (11715151_x_at) / Fold change /veh PRB3 (11715151_x_at) / RFU TUBB4B (11761932_at) / Fold change /veh TUBB4B (11761932_at) / RFU CAPN14 (11732068_a_at) / Fold change /veh CAPN14 (11732068_a_at) / RFU TMCC2 (11721928_a_at) / Fold change /veh TMCC2 (11721928_a_at) / RFU IRGQ (11745062_a_at) / Fold change /veh IRGQ (11745062_a_at) / RFU FAM174B (11720279_a_at) / Fold change /veh FAM174B (11720279_a_at) / RFU TMPRSS4 (11748680_a_at) / Fold change /veh TMPRSS4 (11748680_a_at) / RFU FAM212B (11763350_a_at) / Fold change /veh FAM212B (11763350_a_at) / RFU PLEKHG5 (11743358_a_at) / Fold change /veh PLEKHG5 (11743358_a_at) / RFU ZSCAN30 (11745921_a_at) / Fold change /veh ZSCAN30 (11745921_a_at) / RFU CMKLR1 (11741424_a_at) / Fold change /veh CMKLR1 (11741424_a_at) / RFU LOC101060620 /// MAPK8IP1 (11723275_at) / Fold change /veh LOC101060620 /// MAPK8IP1 (11723275_at) / RFU SPTSSB (11747773_x_at) / Fold change /veh SPTSSB (11747773_x_at) / RFU PRSS12 (11739890_at) / Fold change /veh PRSS12 (11739890_at) / RFU BIN1 (11741810_x_at) / Fold change /veh BIN1 (11741810_x_at) / RFU WNT11 (11732464_a_at) / Fold change /veh WNT11 (11732464_a_at) / RFU C10orf10 (11716521_a_at) / Fold change /veh C10orf10 (11716521_a_at) / RFU C5orf56 (11738089_at) / Fold change /veh C5orf56 (11738089_at) / RFU CYB561 (11721691_x_at) / Fold change /veh CYB561 (11721691_x_at) / RFU ANKRD19P (11752326_a_at) / Fold change /veh ANKRD19P (11752326_a_at) / RFU OR2T12 /// OR2T33 /// OR2T8 (11738714_s_at) / Fold change /veh OR2T12 /// OR2T33 /// OR2T8 (11738714_s_at) / RFU VCAN (11748164_a_at) / Fold change /veh VCAN (11748164_a_at) / RFU JSRP1 (11732532_at) / Fold change /veh JSRP1 (11732532_at) / RFU KRTAP10-11 (11738290_x_at) / Fold change /veh KRTAP10-11 (11738290_x_at) / RFU MYO3A (11730013_a_at) / Fold change /veh MYO3A (11730013_a_at) / RFU EBF3 (11725865_a_at) / Fold change /veh EBF3 (11725865_a_at) / RFU CAMK2N1 (11719241_x_at) / Fold change /veh CAMK2N1 (11719241_x_at) / RFU C5orf56 (11738088_a_at) / Fold change /veh C5orf56 (11738088_a_at) / RFU OLFML3 (11715873_a_at) / Fold change /veh OLFML3 (11715873_a_at) / RFU LOC100653217 /// NTM (11731650_a_at) / Fold change /veh LOC100653217 /// NTM (11731650_a_at) / RFU MAPK11 (11762145_a_at) / Fold change /veh MAPK11 (11762145_a_at) / RFU FIZ1 (11724087_x_at) / Fold change /veh FIZ1 (11724087_x_at) / RFU OASL (11726364_x_at) / Fold change /veh OASL (11726364_x_at) / RFU SOX15 (11748057_x_at) / Fold change /veh SOX15 (11748057_x_at) / RFU CD79A (11719716_a_at) / Fold change /veh CD79A (11719716_a_at) / RFU HIST1H1D (11736915_at) / Fold change /veh HIST1H1D (11736915_at) / RFU CASKIN2 (11723855_a_at) / Fold change /veh CASKIN2 (11723855_a_at) / RFU LOC730098 (11760151_x_at) / Fold change /veh LOC730098 (11760151_x_at) / RFU OR4N2 (11742367_at) / Fold change /veh OR4N2 (11742367_at) / RFU PRRT2 (11749266_a_at) / Fold change /veh PRRT2 (11749266_a_at) / RFU SNX32 (11753110_a_at) / Fold change /veh SNX32 (11753110_a_at) / RFU CDHR5 (11726645_a_at) / Fold change /veh CDHR5 (11726645_a_at) / RFU RCAN1 (11760418_a_at) / Fold change /veh RCAN1 (11760418_a_at) / RFU FAM167A (11723789_a_at) / Fold change /veh FAM167A (11723789_a_at) / RFU FAM26E (11764081_at) / Fold change /veh FAM26E (11764081_at) / RFU ISYNA1 (11749810_s_at) / Fold change /veh ISYNA1 (11749810_s_at) / RFU ACY1 (11761880_at) / Fold change /veh ACY1 (11761880_at) / RFU 11764098_at / Fold change /veh 11764098_at / RFU SAMD14 (11745864_x_at) / Fold change /veh SAMD14 (11745864_x_at) / RFU NPB (11741838_a_at) / Fold change /veh NPB (11741838_a_at) / RFU TMPRSS6 (11731388_a_at) / Fold change /veh TMPRSS6 (11731388_a_at) / RFU KRTAP10-2 (11738614_at) / Fold change /veh KRTAP10-2 (11738614_at) / RFU ARHGAP8 /// PRR5-ARHGAP8 (11727945_x_at) / Fold change /veh ARHGAP8 /// PRR5-ARHGAP8 (11727945_x_at) / RFU KRTAP5-7 /// NADSYN1 (11734609_at) / Fold change /veh KRTAP5-7 /// NADSYN1 (11734609_at) / RFU RASL12 (11751679_a_at) / Fold change /veh RASL12 (11751679_a_at) / RFU CDKN2B (11736163_a_at) / Fold change /veh CDKN2B (11736163_a_at) / RFU PRF1 (11729649_at) / Fold change /veh PRF1 (11729649_at) / RFU, ZNF638 /// ZNF638-IT1 / Fold change vs veh, ZNF638 /// ZNF638-IT1 / RFU, PANK3 / Fold change vs veh, PANK3 / RFU, SH3YL1 / Fold change vs veh, SH3YL1 / RFU, ZEB2 / Fold change vs veh, ZEB2 / RFU, NRIP1 / Fold change vs veh, NRIP1 / RFU, PTTG1IP / Fold change vs veh, PTTG1IP / RFU, CAPN2 / Fold change vs veh, CAPN2 / RFU, MED14 / Fold change vs veh, MED14 / RFU, SNORA58 / Fold change vs veh, SNORA58 / RFU, C1orf63 / Fold change vs veh, C1orf63 / RFU, LRRFIP1 / Fold change vs veh, LRRFIP1 / RFU, NDUFAF7 / Fold change vs veh, NDUFAF7 / RFU, SLC12A2 / Fold change vs veh, SLC12A2 / RFU, IBTK / Fold change vs veh, IBTK / RFU, ESF1 / Fold change vs veh, ESF1 / Fold change vs veh, TMEM50B / RFU, TAOK1 / Fold change vs veh, TAOK1 / RFU, ACBD3 / Fold change vs veh, ACBD3 / RFU, TMA16 / Fold change vs veh, TMA16 / RFU, RWDD3 / Fold change vs veh, RWDD3 / RFU, BCAT1 / Fold change vs veh, BCAT1 / RFU, EDEM3 / Fold change vs veh, EDEM3 / RFU, TMEM33 / Fold change vs veh, TMEM33 / RFU, WDR75 / Fold change vs veh, WDR75 / RFU, AHCTF1 / Fold change vs veh, AHCTF1 / RFU, TFRC / Fold change vs veh, TFRC / RFU, ZDHHC17 / Fold change vs veh, ZDHHC17 / RFU, NOM1 / Fold change vs veh, NOM1 / RFU, ARL8B / Fold change vs veh, ARL8B / RFU, ZBTB11 / Fold change vs veh, ZBTB11 / RFU, TAMM41 / Fold change vs veh, TAMM41 / RFU, KIAA1704 /// LOC100996395 / Fold change vs veh, KIAA1704 /// LOC100996395 / RFU, ING1 / Fold change vs veh, ING1 / RFU, TRMT61B / Fold change vs veh, TRMT61B / RFU, FUBP3 / Fold change vs veh, FUBP3 / RFU, TP53 / Fold change vs veh, TP53 / RFU, TNKS2 / Fold change vs veh, TNKS2 / RFU, ZFP14 / Fold change vs veh, ZFP14 / RFU, ACTR2 / Fold change vs veh, ACTR2 / RFU, PPP3R1 / Fold change vs veh, PPP3R1 / RFU, PIK3R1 / Fold change vs veh, PIK3R1 / RFU, HNRNPA1 / Fold change vs veh, HNRNPA1 / RFU, RNF170 / Fold change vs veh, RNF170 / RFU, ZNF28 / Fold change vs veh, ZNF28 / RFU, RNGTT / Fold change vs veh, RNGTT / RFU, OGT / Fold change vs veh, OGT / RFU, BRD1 / Fold change vs veh, BRD1 / RFU, MARS / Fold change vs veh, MARS / RFU, ZNF655 / Fold change vs veh, ZNF655 / RFU, FAHD1 / Fold change vs veh, FAHD1 / RFU, BDP1 / Fold change vs veh, BDP1 / RFU, LRRCC1 / Fold change vs veh, LRRCC1 / RFU, ARID1A / Fold change vs veh, ARID1A / RFU, ZNF146 / Fold change vs veh, ZNF146 / RFU, ZNF330 / Fold change vs veh, ZNF330 / RFU, GPN3 / Fold change vs veh, GPN3 / RFU, C9orf123 / Fold change vs veh, C9orf123 / RFU, N4BP2L2 / Fold change vs veh, N4BP2L2 / RFU, ARFIP1 / Fold change vs veh, ARFIP1 / RFU, FAM179B / Fold change vs veh, FAM179B / RFU, BCL10 / Fold change vs veh, BCL10 / RFU, UHRF1BP1L / Fold change vs veh, UHRF1BP1L / RFU, BET1 / Fold change vs veh, BET1 / RFU, CNOT2 / Fold change vs veh, CNOT2 / RFU, ZNF268 / Fold change vs veh, ZNF268 / Fold change vs veh, ZNF507 / RFU, DGCR2 / Fold change vs veh, DGCR2 / RFU, WDSUB1 / Fold change vs veh, WDSUB1 / Fold change vs veh, HSP90B1 /// MIR3652 / RFU, ADSS / Fold change vs veh, ADSS / RFU, GK / Fold change vs veh, GK / RFU, ZNF148 / Fold change vs veh, ZNF148 / RFU, TAF9 / Fold change vs veh, TAF9 / RFU, SLC1A5 / Fold change vs veh, SLC1A5 / RFU, SLMO2 / Fold change vs veh, SLMO2 / RFU, ABCC4 / Fold change vs veh, ABCC4 / RFU, LOC101060439 /// RAP1B / Fold change vs veh, LOC101060439 /// RAP1B / RFU, RFX7 / Fold change vs veh, RFX7 / RFU, GTPBP10 / Fold change vs veh, GTPBP10 / RFU, CNEP1R1 / Fold change vs veh, CNEP1R1 / RFU, BIVM-ERCC5 /// ERCC5 / Fold change vs veh, BIVM-ERCC5 /// ERCC5 / RFU, ILF3 / Fold change vs veh, ILF3 / RFU 11762660_at / Fold change /veh 11762660_at / RFU VCAN (11757783_s_at) / Fold change /veh VCAN (11757783_s_at) / RFU DDX43 (11728927_at) / Fold change /veh DDX43 (11728927_at) / RFU KRT8 (11758188_x_at) / Fold change /veh KRT8 (11758188_x_at) / RFU NKD1 (11759106_at) / Fold change /veh NKD1 (11759106_at) / RFU SRD5A1 (11742802_a_at) / Fold change /veh SRD5A1 (11742802_a_at) / RFU TPSAB1 /// TPSB2 (11721975_s_at) / Fold change /veh TPSAB1 /// TPSB2 (11721975_s_at) / RFU GSTM3 (11746129_a_at) / Fold change /veh GSTM3 (11746129_a_at) / RFU IL23R (11737362_x_at) / Fold change /veh IL23R (11737362_x_at) / RFU TMEM51 (11727254_a_at) / Fold change /veh TMEM51 (11727254_a_at) / RFU PIWIL2 (11732686_x_at) / Fold change /veh PIWIL2 (11732686_x_at) / RFU ORM1 (11744905_x_at) / Fold change /veh ORM1 (11744905_x_at) / RFU CCDC152 (11743942_at) / Fold change /veh CCDC152 (11743942_at) / RFU ECM1 (11717891_a_at) / Fold change /veh ECM1 (11717891_a_at) / RFU IL23R (11748794_a_at) / Fold change /veh IL23R (11748794_a_at) / RFU TNFAIP8L3 (11732012_x_at) / Fold change /veh TNFAIP8L3 (11732012_x_at) / RFU MBOAT4 (11741988_at) / Fold change /veh MBOAT4 (11741988_at) / RFU 11764193_at / Fold change /veh 11764193_at / RFU TMEM53 (11763286_at) / Fold change /veh TMEM53 (11763286_at) / RFU MAGEB2 (11727129_at) / Fold change /veh MAGEB2 (11727129_at) / RFU TMEM200A (11744735_a_at) / Fold change /veh TMEM200A (11744735_a_at) / RFU CCDC152 (11751479_a_at) / Fold change /veh CCDC152 (11751479_a_at) / RFU FAM211A (11726209_a_at) / Fold change /veh FAM211A (11726209_a_at) / RFU RGS16 (11746705_a_at) / Fold change /veh RGS16 (11746705_a_at) / RFU VCAN (11755009_s_at) / Fold change /veh VCAN (11755009_s_at) / RFU RHOB (11743442_s_at) / Fold change /veh RHOB (11743442_s_at) / RFU RGS16 (11720943_a_at) / Fold change /veh RGS16 (11720943_a_at) / RFU RGS16 (11720944_at) / Fold change /veh RGS16 (11720944_at) / RFU, VPS4B / Fold change vs veh, VPS4B / RFU, CREB1 / Fold change vs veh, CREB1 / RFU, DNAJC13 / Fold change vs veh, DNAJC13 / RFU, GNAQ / Fold change vs veh, GNAQ / RFU, CDK5R1 / Fold change vs veh, CDK5R1 / RFU, ZRANB3 / Fold change vs veh, ZRANB3 / RFU, CUL4A / Fold change vs veh, CUL4A / RFU, CCNY / Fold change vs veh, CCNY / RFU, UFL1 / Fold change vs veh, UFL1 / RFU, COG3 / Fold change vs veh, COG3 / RFU, DIAPH2 / Fold change vs veh, DIAPH2 / RFU, SKA2 / Fold change vs veh, SKA2 / RFU, AFF3 / Fold change vs veh, AFF3 / RFU, LMF1 / Fold change vs veh, LMF1 / RFU, IPO11 / Fold change vs veh, IPO11 / RFU, DFFB / Fold change vs veh, DFFB / RFU, FOXP1 / Fold change vs veh, FOXP1 / RFU, CARD8 / Fold change vs veh, CARD8 / RFU, STRN3 / Fold change vs veh, STRN3 / RFU, ADK / Fold change vs veh, ADK / RFU, RASSF2 / Fold change vs veh, RASSF2 / RFU, WIPF1 / Fold change vs veh, WIPF1 / RFU, LARP1B / Fold change vs veh, LARP1B / RFU, RASA1 / Fold change vs veh, RASA1 / RFU, RB1 / Fold change vs veh, RB1 / RFU, PPFIA1 / Fold change vs veh, PPFIA1 / RFU, MAT2A / Fold change vs veh, MAT2A / RFU, CCT5 / Fold change vs veh, CCT5 / RFU, WDR92 / Fold change vs veh, WDR92 / RFU, CUX1 / Fold change vs veh, CUX1 / RFU, TTC7A / Fold change vs veh, TTC7A / RFU, TMEM135 / Fold change vs veh, TMEM135 / RFU, DEPTOR / Fold change vs veh, DEPTOR / RFU, CPM / Fold change vs veh, CPM / RFU, DNAJB6 / Fold change vs veh, DNAJB6 / RFU, CACNA2D3 / Fold change vs veh, CACNA2D3 / RFU, DTX4 / Fold change vs veh, DTX4 / RFU, TFCP2 / Fold change vs veh, TFCP2 / RFU, GMCL1 /// GMCL1P1 / Fold change vs veh, GMCL1 /// GMCL1P1 / RFU, AEBP2 / Fold change vs veh, AEBP2 / RFU, SNHG1 /// SNORD22 /// SNORD25 /// SNORD26 /// SNORD27 /// SNORD28 /// SNORD29 /// SNORD31 / Fold change vs veh, SNHG1 /// SNORD22 /// SNORD25 /// SNORD26 /// SNORD27 /// SNORD28 /// SNORD29 /// SNORD31 / Fold change (Aza/veh), C12orf56 (ProbeSet 11735607_a_at) / Fold change (ACY-1035/veh), C12orf56 (ProbeSet 11735607_a_at) / Fold change (Aza/veh), FGFR1OP (ProbeSet 11751329_s_at) / Fold change (ACY-1035/veh), FGFR1OP (ProbeSet 11751329_s_at) / Fold change (Aza/veh), VPS36 (ProbeSet 11739960_a_at) / Fold change (ACY-1035/veh), VPS36 (ProbeSet 11739960_a_at) / RFU SYPL1 (11715823_x_at) / Fold change /veh SYPL1 (11715823_x_at) / RFU IGFBP7 (11715501_s_at) / Fold change /veh IGFBP7 (11715501_s_at) / RFU REEP3 (11722064_at) / Fold change /veh REEP3 (11722064_at) / RFU IGLL1 (11728026_x_at) / Fold change /veh IGLL1 (11728026_x_at): dose or concentration left out as unconfirmed
Conditions: ProbeSet 11716999_a_at; LIST D

Structure (SMILES): Nc1ncn([C@@H]2O[C@H](CO)[C@@H](O)[C@H]2O)c(=O)n1 [azacitidine]
- Fold change vs veh, RASA1: 0.72
